Our source for the cytotoxicity values is ChEMBL document CHEMBL3507680, “University of Dundee, Gates Library screen for HepG2 cell viability”.

This series is described as follows: Human HepG2 cell viability assay in 384 well format. Format: toxicity, cell-based. Also on record: dose 125 nL, time 70.5 hour; cytotoxicity at 70.5 h: concentration not given beside the values. As to conditions: HepG2 cells, read-out: Inhibition.
`Cc1cccc(CN2CCC3(CCN(c4ncccn4)C3)C2=O)c1` (stereo not given): the cytotoxicity at 70.5 h was -8.75%.

Consider `O=C(CC1CC1)N1C[C@@H]2CN(c3ccccc3)C(=O)[C@@H]2C1`, for which the cytotoxicity at 70.5 h was -8.68%.

Regarding `O=C(c1ccco1)N1CCC12CCN(c1ncc(F)cn1)CC2`, the cytotoxicity at 70.5 h is 0.431%.

For `O=C1CC2(CCN(S(=O)(=O)c3cccs3)C2)CN1c1cccc(F)c1` (stereo not given), the cytotoxicity at 70.5 h is -9.07%.

As for `COc1ccc(C[C@H]2CN(C(=O)CS(C)(=O)=O)CC[C@H]2OC)cc1`, the cytotoxicity at 70.5 h is -4.64%.

In the case of `Cc1ccccc1N1CC2(CCN(S(=O)(=O)c3ccccc3)C2)CC1=O` (stereo not given), the cytotoxicity at 70.5 h is -7.42%.

For `COc1ccc(C[C@H]2CN(C(=O)c3ccn(C)n3)CC[C@H]2OC)cc1`, the cytotoxicity at 70.5 h was -0.598%.

On to `COc1ccc(C[C@H]2CN(C(=O)c3cnoc3)CC[C@@H]2OC)cc1`, for which the cytotoxicity at 70.5 h is -3.97%.

For `CS(=O)(=O)N1CC2(CCN(C(=O)c3csnn3)CC2)c2ccccc21`, the cytotoxicity at 70.5 h was -4.79%.

Regarding `Cc1ccccc1CN1CCC2(CCCN2C(=O)C(C)C)CC1`, the cytotoxicity at 70.5 h worked out at 32.8%.

Consider `CN(C)CC(=O)N1CC2(CCN(Cc3ccccc3)C2)C1`, for which the cytotoxicity at 70.5 h is 35.2%.

As for `COCCC(=O)N1C[C@H]2CN(Cc3cccc(C)c3)C(=O)[C@H]2C1`, the cytotoxicity at 70.5 h is -10.7%.

For `O=C(N1CCCC1)N1CCC2(CC1)C(=O)N(CC1CC1)c1ccccc12`, the cytotoxicity at 70.5 h was -20.3%.

Consider `O=C1C[C@H]2[C@@H](CCN2C(=O)c2cscn2)N1Cc1cccnc1`, for which the cytotoxicity at 70.5 h is -20.8%.

On to `Cc1cccc(CN2C[C@@H]3CN(C(=O)C4CC=CC4)C[C@@H]3C2=O)n1`, for which the cytotoxicity at 70.5 h was -14.7%.

On to `O=C1C[C@H]2[C@@H](CCN2C(=O)Cc2cccs2)N1CC1CC1`, for which the cytotoxicity at 70.5 h is -13.5%.

Take `CC(=O)N1[C@H](Cn2cncn2)C[C@@H]2CN(C(=O)c3ccoc3)CC[C@@H]21`: the cytotoxicity at 70.5 h was -6.21%.

As for `CCN1C(=O)CCCC12CCCN(C(=O)c1ccoc1C)C2` (stereo not given), the cytotoxicity at 70.5 h was -10.9%.

In the case of `O=C(C1CCOC1)N1CCC2(CCCNC2)CC1` (stereo not given), the cytotoxicity at 70.5 h was -8.86%.

Take `O=C(Cc1cccs1)N1CC[C@H]2[C@H]1CCN2Cc1cccnc1`: the cytotoxicity at 70.5 h is -6.88%.

In the case of `COCC(=O)N1CCc2c(CNS(C)(=O)=O)n[nH]c2C1`, the cytotoxicity at 70.5 h is -5.36%.

Turning to `CCCS(=O)(=O)N1CCC2(CC(=O)N(c3cnn(C)c3)C2)C1` (stereo not given), the cytotoxicity at 70.5 h was -7.78%.

Turning to `O=C1NC(c2ccccc2)=N[C@@]12CC[C@@H]1CN(Cc3ccncc3)C[C@@H]12`, the cytotoxicity at 70.5 h is -13.9%.

In the case of `c1coc(CN2CCc3ncnc(C4CCOC4)c3CC2)c1` (stereo not given), the cytotoxicity at 70.5 h is -9.16%.

Regarding `CCOCC(=O)N1CCC[C@]2(C[C@@H](OCc3ccncc3)CO2)C1`, the cytotoxicity at 70.5 h was -7.17%.

For the compound `COc1ncccc1CN1C[C@H](C(=O)N2CCCO2)[C@@H]2CCO[C@@H]2C1`, the cytotoxicity at 70.5 h is -6.23%.

As to `CCS(=O)(=O)N1CCC2(CC(=O)N(c3ccc4c(c3)OCO4)C2)C1` (stereo not given), the cytotoxicity at 70.5 h is 7.63%.

For `Cn1cccc1C(=O)NCc1cnc2n1CCN(c1ccccn1)C2`, the cytotoxicity at 70.5 h is -3.68%.

With `Cc1noc(C)c1CN1CCCC2(C1)CN(c1nncs1)CCO2` (stereo not given), the cytotoxicity at 70.5 h was -7.2%.

In the case of `CC(=O)N1CC(=O)N(c2cnn(C)c2)CC12CCN(Cc1nccs1)C2` (stereo not given), the cytotoxicity at 70.5 h was -7.04%.

As to `N#Cc1cccc(CN2CCn3cc(CNC(=O)C4CCC4)nc3C2)c1`, the cytotoxicity at 70.5 h was -6.27%.

In the case of `Cn1cccc1C(=O)N[C@@H]1CN(S(C)(=O)=O)[C@@H]2COC[C@@H]21`, the cytotoxicity at 70.5 h was -8.37%.

Consider `CN(C)C(=O)N1CCc2c(nnn2C)C1COCC1CC1` (stereo not given), for which the cytotoxicity at 70.5 h is -2.28%.

Turning to `COCc1ncn2c1CN(S(=O)(=O)c1cccs1)CCC2`, the cytotoxicity at 70.5 h was determined as 10.6%.

With `CCOCc1ncn2c1CN(S(=O)(=O)c1cccs1)CCC2`, the cytotoxicity at 70.5 h turned out to be 12.5%.

On to `O=C(CC1CC1)N[C@@H]1CN(Cc2ccoc2)C[C@@H]2CCCO[C@@H]21`, for which the cytotoxicity at 70.5 h stood at 14%.

Regarding `CS(=O)(=O)NC[C@H]1OC[C@@H]2CCN(C(=O)c3cccnc3)C[C@@H]21`, the cytotoxicity at 70.5 h was -0.643%.

Take `CCOCc1ncn2c1CN(S(=O)(=O)c1cccs1)CC2`: the cytotoxicity at 70.5 h was -0.803%.

In the case of `O=C(CC1CC1)N[C@@H]1CN(Cc2nccs2)C[C@@H]2CCCO[C@@H]21`, the cytotoxicity at 70.5 h is -2.11%.

Turning to `O=C(NCc1ccco1)[C@@]12CCO[C@@H]1CCN(Cc1nccs1)C2`, the cytotoxicity at 70.5 h worked out at 1.38%.

In the case of `COc1ccc(CN2C[C@@H]3CCCO[C@@H]3[C@H](NC(=O)CC3CC3)C2)cc1`, the cytotoxicity at 70.5 h is 3.18%.

As to `O=S(=O)(c1ccc(F)cc1)N1CCCn2cnc(CN3CCCC3)c2C1`, the cytotoxicity at 70.5 h came out at 3.23%.

Take `CCN1C(=O)C2(CCOCC2)c2cc(NC(=O)c3cccn3C)ccc21`: the cytotoxicity at 70.5 h is -0.784%.

Consider `Cc1nnn2c1COCC(CNC(=O)c1ccnnc1)C2` (stereo not given), for which the cytotoxicity at 70.5 h is -0.292%.

As for `NCC1[C@H]2CN(Cc3ccccc3F)C[C@@H]12` (stereo not given in full), the cytotoxicity at 70.5 h is -6.6%.

Regarding `CN(C)Cc1cncc2c1CCN(Cc1cnn(C)c1)C2`, the cytotoxicity at 70.5 h is -0.555%.

Take `Cc1cc(C(=O)N2CC[C@@H](N(C)C)[C@@H]2Cc2ccccc2)no1`: the cytotoxicity at 70.5 h is -0.0942%.

As for `CN(C)CCN1C(=O)CCC12CCCN(C(=O)N(C)C)CC2` (stereo not given), the cytotoxicity at 70.5 h was 0.00398%.

As for `CC(=O)N1CCCC2(CCC(=O)N2Cc2cccnc2)C1` (stereo not given), the cytotoxicity at 70.5 h worked out at 30.1%.

`Cc1cccc(CN2CCc3nnc(Cn4cccc4)n3CC2)n1`: the cytotoxicity at 70.5 h is -5.46%.

Take `CC(C)N1CCC2(C=C(C(=O)NC3CC3)c3ccccc32)CC1`: the cytotoxicity at 70.5 h was -1.67%.

In the case of `CC(=O)N1[C@H](CN(C)C)C[C@@H]2CN(C(=O)c3cnc(C)cn3)CC[C@@H]21`, the cytotoxicity at 70.5 h was -5.19%.

`CC(=O)N1[C@H](CN(C)C)C[C@@H]2CN(C(=O)c3cccn3C)CC[C@@H]21`: the cytotoxicity at 70.5 h is -11.1%.

`O=C(NC1CC1)C1=CC2(CCN(CCO)CC2)c2ccccc21`: the cytotoxicity at 70.5 h was -11%.

Take `CCOC1COC2(CCN(Cc3cccc(C#N)c3)CC2)C1` (stereo not given): the cytotoxicity at 70.5 h is -8.68%.

For the compound `c1csc(CN2CCc3ncnc(C4CCOC4)c3CC2)c1` (stereo not given), the cytotoxicity at 70.5 h was -8.76%.

Regarding `O=C(O)[C@]12CCCN(Cc3ccco3)C[C@H]1CN(c1ncccn1)C2`, the cytotoxicity at 70.5 h was -12.1%.

For `CC(C)NC(=O)[C@H]1C[C@@H]2[C@@H](C1)OCCN2Cc1ccsc1`, the cytotoxicity at 70.5 h was -6.32%.

As for `CC(C)Oc1ncnc2c1CCN(Cc1ccco1)CC2`, the cytotoxicity at 70.5 h is -2.84%.

For `Fc1ccc(CN2CCc3ncnc(C4CCOC4)c3CC2)cc1` (stereo not given), the cytotoxicity at 70.5 h is -5.46%.

As for `O=C([C@H]1CN(Cc2ccccc2F)C[C@H]2OCC[C@@H]12)N1CCCO1`, the cytotoxicity at 70.5 h was found to be 1.95%.

Take `CN(C)C(=O)CO[C@H]1CN(Cc2cccc(C#N)c2)[C@@H]2COC[C@H]12`: the cytotoxicity at 70.5 h is 7.63%.

In the case of `Cc1noc(C)c1CN1CCn2cc(CNC(=O)C3CCC3)nc2C1`, the cytotoxicity at 70.5 h was -12.7%.

In the case of `Cn1nnc2c1CCN(C(=O)C1CCC1)C2COCCN1CCCC1` (stereo not given), the cytotoxicity at 70.5 h was -2.83%.

For the compound `O=C(NCc1cn2c(n1)CN(Cc1cccc(F)c1)CC2)C1CCC1`, the cytotoxicity at 70.5 h was -3.08%.

Consider `O=C(N[C@@H]1CN(C2CCCC2)C[C@@H]2CCCO[C@@H]21)c1cnccn1`, for which the cytotoxicity at 70.5 h is -12.5%.

With `Cn1cccc1C(=O)N[C@@H]1CN(Cc2ccsc2)[C@@H]2COC[C@@H]21`, the cytotoxicity at 70.5 h is -10.2%.

Turning to `CN1CCc2ncc(CNC(=O)c3cccn3C)n2CC1`, the cytotoxicity at 70.5 h is -7.23%.

For `O=C(CC1CC1)N[C@@H]1CN(c2ncccn2)C[C@@H]2CCCO[C@@H]21`, the cytotoxicity at 70.5 h is -7.21%.

Consider `Cn1cccc1C(=O)NCc1cnc2n1CCN(CC1CC1)C2`, for which the cytotoxicity at 70.5 h was 3.59%.

With `O=C([C@H]1C[C@H]2OCC[C@H]2N(C(=O)c2ccncc2)C1)N1CCCC1`, the cytotoxicity at 70.5 h is -5.12%.

On to `Cc1cc(CN2C[C@@H]3CCCO[C@@H]3[C@H](NS(C)(=O)=O)C2)no1`, for which the cytotoxicity at 70.5 h was -1.78%.

For `O=C1[C@H]2CN(Cc3ccc(F)cc3)C[C@H]2CN1c1cncnc1`, the cytotoxicity at 70.5 h was 0.584%.

Turning to `CCOCC1CN(S(=O)(=O)N(C)C)Cc2cnn(C)c21` (stereo not given), the cytotoxicity at 70.5 h is -6.39%.

Consider `O=C1CC[C@@H]2[C@@H](CCN2Cc2ccccn2)N1CC1CC1`, for which the cytotoxicity at 70.5 h is -3.44%.

Consider `CC(C)NC(=O)[C@H]1C[C@@H]2[C@@H](C1)OCCN2Cc1ccccn1`, for which the cytotoxicity at 70.5 h is -5.2%.

As to `Cc1noc(C)c1CN1CCCC2(C1)CN(Cc1nccn1C)CCO2` (stereo not given), the cytotoxicity at 70.5 h was -8.03%.

As for `c1csc(CN2CCCC3(COCCN(Cc4c[nH]nn4)C3)C2)c1` (stereo not given), the cytotoxicity at 70.5 h turned out to be 1.75%.

Take `CN(C)CCOCC1CN(C(=O)N2CCCC2)Cc2ccnn2C1` (stereo not given): the cytotoxicity at 70.5 h was -5.66%.

For `CN(C)CCNC(=O)c1nc2c(o1)CN(C(=O)c1cccnc1)C2`, the cytotoxicity at 70.5 h came to 10.9%.

With `Cn1ccnc1CN1CCN2C[C@H](Oc3cccc(F)c3)C[C@H]2C1`, the cytotoxicity at 70.5 h turned out to be 11.9%.

Regarding `CN(C)CCN1CCOCC2(CCCN(C(=O)c3ccccn3)C2)C1` (stereo not given), the cytotoxicity at 70.5 h is 0.371%.

In the case of `CN(C)CCN1CCOCC2(CCCN(C(=O)c3ccoc3)C2)C1` (stereo not given), the cytotoxicity at 70.5 h is 1.59%.

As for `O=C(CC1CC1)N[C@@H]1CN(Cc2ccccn2)C[C@@H]2CCCO[C@@H]21`, the cytotoxicity at 70.5 h is -0.597%.

For the compound `COCc1cncc2c1CCN(Cc1cnn(C)c1)C2`, the cytotoxicity at 70.5 h turned out to be 10.6%.

For the compound `O=C(C1CC=CC1)N1CCc2c(COCc3ccncc3)cncc2C1`, the cytotoxicity at 70.5 h is -10.9%.

Take `O=C1C[C@H]2[C@@H](CCN2Cc2ccccn2)N1Cc1cccnc1`: the cytotoxicity at 70.5 h is -6.81%.

In the case of `c1cnc(N2CCN(C3CCC[C@@H]4CN(CC5CC5)C[C@H]34)CC2)nc1` (stereo not given in full), the cytotoxicity at 70.5 h is -1.3%.

With `Cc1cccc(CN2CCN3C[C@H](Oc4cccnc4)C[C@H]3C2)n1`, the cytotoxicity at 70.5 h was -1.7%.

With `Cn1ccnc1CN1CCN2C[C@H](OCc3cccnc3)C[C@H]2C1`, the cytotoxicity at 70.5 h was -2.68%.
